According to patent US20250257034A1, “INDOLE DERIVATIVES AS SEROTONERGIC AGENTS USEFUL FOR THE TREATMENT OF DISORDERS RELATED THERETO” (priority 2023, published 2025):
Like-named read-outs stand apart in the source and are kept apart here.

Molecular target: T1, human 5-HT1A receptor (Homo sapiens, UniProt P08908)
T1 sequence (P08908 1-422): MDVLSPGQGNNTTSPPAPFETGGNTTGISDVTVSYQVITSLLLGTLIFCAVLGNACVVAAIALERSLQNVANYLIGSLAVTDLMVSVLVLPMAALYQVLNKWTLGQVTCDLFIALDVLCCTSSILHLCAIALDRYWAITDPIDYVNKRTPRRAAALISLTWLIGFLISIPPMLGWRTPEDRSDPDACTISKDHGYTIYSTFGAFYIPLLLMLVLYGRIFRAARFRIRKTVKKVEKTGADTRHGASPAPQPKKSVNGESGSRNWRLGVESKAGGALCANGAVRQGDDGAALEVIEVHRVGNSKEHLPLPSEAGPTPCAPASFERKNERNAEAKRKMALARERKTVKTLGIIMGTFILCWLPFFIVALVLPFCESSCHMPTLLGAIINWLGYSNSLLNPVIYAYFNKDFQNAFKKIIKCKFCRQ
Assay: Human 5-HT1A functional FLIPR assay (agonist mode)
Assay type: cell-based
Parameters: expressed in transfected cells; host or cells: HTR1A&Gα15-CHO
Protocol: The potential excitatory effects of compounds targeting on 5-hydroxytryptamine receptor 1A (5-HT1A) under agonist mode was assessed.
HTR1A&Gα15-CH0 cells were cultured in DMEM/F12 medium containing 10% dialyzed FBS, 1×penicillin-streptomycin and 600 μg/mL Hygromycin B. The cells were passaged about three times a week, maintained between ˜30% to ˜90% confluence.
1. The cell culture medium (DMEM/F12 medium containing 10% dialyzed FBS, 1×penicillin-streptomycin and 600 μg/mL Hygromycin B), TrypLE™ Express and DPBS was warmed to R.T. in advance.
2. The cell culture medium was removed from flask. Washed cells with DPBS.
3. 1 mL TrypLE™ Express was added to the flask, mixed well by gentle shaking and cells were incubated at 37° C. for a few minutes.
4. The cells were checked for morphological change under microscope, the digestion was stopped by adding 2 mL cell culture medium to the flask when most of cells turned to round.
5. The cell suspension was transferred into a 15 mL centrifuge tube, and then centrifuged at 1,200 rpm for 5 minutes.
6. The supernatant was removed. The cell pellets were resuspended with 2 mL cell culture medium.
7. The cell density was counted using a cell counter.
8. Cells were diluted to 4×10^5/mL with cell culture medium.
9. 30 μL/well cell suspensions were added into a 384-well cell plate (the cell density was 12,000 cells/well).
10. The cell plate was incubated overnight at 37° C., 5% (v/v) CO2.
1. On the day of experiments, culture medium was removed from the cell plate.
2. 10 μL of assay buffer (20 mM HEPES, in 1x HBSS, pH 7.4) was added to each well of the cell plate.
3. 2×dye solution was prepared following the manufacturer's instruction of the FLIPR® Calcium 6 assay kit: • i. The dye was diluted with assay buffer. • ii. probenecid was added to the final concentration of 5 mM. • iii. Vortexed vigorously for I-2 minutes, adjust pH to 7.4.
4. 10 μL of 2×dye solution was added to each well of the cell plate.
5. The cell plate was placed on plate shaker, followed by shaking at 600 rpm for 2 minutes.
6. The plate was incubated at 37° C. for 2 hours followed by an additional 15-minute incubation at 25° C.
1. Serotonin was prepared to the concentration of 10 mM with DMSO, 3-folds serial dilutions were performed with DMSO.
2. Prepared the test compound to the concentration of 10 mM with DMSO, preform 3-folds serial dilutions with DMSO.
3. The compounds were added to a 384-well compound source plate.
4. 90 nL/well of serial diluted compounds were transferred from source plate to a 384-well compound plate by using an Echo.
5. 30 μL/well of assay buffer was added to the compound plate.
6. The plate was mixed on-plate shaker for 2 minutes.
1. After the cells incubated with dye solution, the cell plate, compound plate containing 3×compounds and F LIP R tips were placed into F LIP R.
2. 10 μL of 3×compounds were transferred from the compound plate to the cell plate by F LIP R.
3. The plate was read for 160 sec with 1 sec interval to obtain the data of agonist mode.
1. The normalized fluorescence reading (RFU) was calculated as shown below, wherein Fmax and Fmin stand for maximum and minimum of calcium signal during defined time window:
2. EC50 was calculated by fitting RFU against log of compound concentrations with Hill equation using XLfit.
HTR1A&Gα15-C H0 cells were cultured in DMEM/F 12 medium containing 10% dialyzed FBS, 1x penicillin-streptomycin and 600 μg/mL Hygromycin B. The cells were passaged about three times a week, maintained between ˜30% to ˜90% confluence.
1. The cell culture medium (DMEM/F 12 medium containing 10% dialyzed FBS, 1x penicillin-streptomycin and 600 μg/mL Hygromycin B), TrypLE™ Express and DPBS was warmed to R.T. in advance.
7. The cell density was counted using cell counter.
9. 30 μL/well cell suspensions were added into a 384-well cell plate (The cell density was 12,000 cells/well).
3. 2×dye solution was prepared following the manufacture's instruction of the F LIP R® Calcium 6 assay kit: • i.

SMILES | EC50 [nM] | RFU@10 μM (RFU=Fmax−Fmin (Table 47)) | RFU@10 μM (RFU=Fmax−Fmin (Table 18)) | EC50 (FLIPR calcium, agonist mode, HTR1A&Gα15-CHO cells (Table 47), read-out: h5-HT1A, EC50) [nM]
COc1ccc2[nH]cc(CCN3CC[C@@H](OC)C3)c2c1 [(R) I-66, (R)-5-methoxy-3-(2-(3-methoxypyrrolidin-1-yl)ethyl)-1H-indole] | 977 | 3,690 RFU |  | 
COc1ccc2[nH]cc(CCN3CC[C@@H](OC(F)F)C3)c2c1 [(R) I-67, (R)-3-(2-(3-(Difluoromethoxy)pyrrolidin-1-yl)ethyl)-5-methoxy-1H-indole] | 1600 | 3,988 RFU |  | 
COc1ccc2[nH]cc(CCN3CC[C@H](OC(F)F)C3)c2c1 [(S) I-67, (S)-3-(2-(3-(Difluoromethoxy)pyrrolidin-1-yl)ethyl)-5-methoxy-1H-indole] | 187 | 3,930 RFU |  | 
[2H]C([2H])([2H])N(CCc1c[nH]c2ccc(SC)cc12)C([2H])([2H])[2H] [Compound I-1, N,N-Bis(methyl-d3)-2-(5-(methylthio)-1H-indol-3-yl)ethan-1-amine] | 928 |  | 2,858 RFU | 
CCN(CC)CCc1c[nH]c2ccc(SC)cc12 [Compound I-12, N,N-Diethyl-2-(5-(methylthio)-1H-indol-3-yl)ethan-1-amine] | 675 |  | 3,735 RFU | 
CCN(C)CCc1c[nH]c2ccc(SC)cc12 [Compound I-13, N-Ethyl-N-methyl-2-(5-(methylthio)-1H-indol-3-yl)ethan-1-amine] | 693 |  | 4,279 RFU | 
CSc1ccc2[nH]cc(CCN(C(C)C)C(C)C)c2c1 [Compound I-17, N-Isopropyl-N-(2-(5-(methylthio)-1H-indol-3-yl)ethyl)propan-2-amine] | 3380 |  | 2,289 RFU | 
CSc1ccc2[nH]cc(CCN(C)C(C)C)c2c1 [Compound I-19, N-Methyl-N-(2-(5-(methylthio)-1H-indol-3-yl)ethyl)propan-2-amine] | 3870 |  | 2,161 RFU | 
COc1ccc2[nH]cc(CCN(C)CCOC(F)F)c2c1 [Compound I-71, 2-(Difluoromethoxy)-N-(2-(5-methoxy-1H-indol-3-yl)ethyl)-N-methylethan-1-amine] |  | 3,087 RFU |  | 1840
CN(C)CCc1c[nH]c2ccc(OCCOC(F)F)cc12 [Compound I-128, 2-(5-(2-(Difluoromethoxy)ethoxy)-1H-indol-3-yl)-N,N-dimethylethan-1-amine] |  | 314 RFU |  | 
CN(CCOC(F)F)CCc1c[nH]c2ccccc12 [Compound I-130, N-(2-(1H-Indol-3-yl)ethyl)-2-(difluoromethoxy)-N-methylethan-1-amine] |  | 163 RFU |  | 
CN(C)CCc1c[nH]c2ccccc12 [DMT] |  | 204 RFU | 204 RFU | 
